Measured values published in PubChem BioAssay (NCI).
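Test compounds were applied to cells in 96-well plates for 48 hours at 5 doses. TGI marks complete inhibition of growth.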

Assays:
Assay in all cases: growth of human tumour cells (NCI), 48 h
[1] = system: CAKI-1 renal
[2] = system: HL-60(TB) leukemia
[3] = system: HOP-18 NSCLC
[4] = system: KM20L2 colon
[5] = system: LXFL 529 NSCLC
[6] = system: M19-MEL melanoma
[7] = system: OVCAR-4 ovarian
[8] = system: SF-268 CNS
[9] = system: UACC-257 melanoma
[10] = system: XF 498 CNS
[11] = system: DMS 114 small cell lung
[12] = system: DMS 273 small cell lung

SMILES	TGI [1] [µM]	TGI [2] [µM]	TGI [3] [µM]	TGI [4] [µM]	TGI [5] [µM]	TGI [6] [µM]	TGI [7] [µM]	TGI [8] [µM]	TGI [9] [µM]	TGI [10] [µM]	TGI [11] [µM]	TGI [12] [µM]
CCOC(=O)/C(C1=NCCN1C)=C(\O)c1ccccc1	> 100	> 100	> 100	> 100	> 100	> 100	> 100	> 100	> 100	> 100	–	–
O=C(c1ccccc1)n1cc(/C=C/[N+](=O)[O-])c2ccccc21	> 100	13.3	> 100	–	35.1	38.9	77.3	52.3	47.3	78.5	38	55.1
C#CN1C(=O)c2c(c(-c3ccccc3)c(-c3ccc(Oc4ccc(-c5c(-c6ccccc6)c6c(c(-c7ccccc7)c5-c5ccccc5)C(=O)N(C#C)C6=O)cc4)cc3)c(-c3ccccc3)c2-c2ccccc2)C1=O	–	> 100	–	> 100	–	> 100	> 100	> 100	> 100	72.8	> 100	> 100
Cc1c(-c2coc(-c3ccc([N+](=O)[O-])cc3)n2)c(=O)n(-c2ccccc2)n1C	–	> 100	–	> 100	> 100	> 100	> 100	> 100	> 100	–	> 100	> 100
Cc1ccc(S(=O)(=O)c2ccc(C)cc2[N+](=O)[O-])c([N+](=O)[O-])c1	–	–	–	> 100	> 100	> 100	> 100	> 100	–	> 100	> 100	> 100
c1ccc2cc(C3NCCc4[nH]cnc43)ccc2c1 (stereo not drawn)	> 100	–	> 100	> 100	> 100	> 100	> 100	> 100	70.9	–	> 100	> 100
O=c1[nH]c(=O)n([C@H]2C[C@@H](CO)[C@@H](O)C2)cc1I	> 100	> 100	> 100	> 100	> 100	> 100	> 100	> 100	> 100	–	> 100	> 100
COC(=O)C(=O)C(C(=O)OC)C(=O)C(=O)Nc1cc(Cl)c(C)cc1S(=O)(=O)O (stereo not drawn)	> 100	> 100	> 100	> 100	> 100	> 100	> 100	> 100	> 100	> 100	> 100	> 100
O=C(O)C12C3CCC(C3)C1(C(=O)O)C1CCC2C1 (stereo not drawn)	> 100	> 100	> 100	> 100	> 100	> 100	–	> 100	> 100	> 100	> 100	> 100
Cc1ccccc1N(CCC#N)C1=NN(C(=O)CC(=O)Nc2ccc(Cl)cc2)C(c2ccccc2)C1 (stereo not drawn)	–	> 100	> 100	> 100	> 100	> 100	> 100	> 100	> 100	–	> 100	> 100
O=C1C(Cl)C(c2ccc(O)cc2)N1n1cnc2ccccc2c1=O (stereo not drawn)	> 60.3	72.3	> 100	> 100	39.5	46.9	> 94	> 100	> 100	> 66.8	> 81	> 100
